From publication PMC2655291 (BMC Structural Biology, 2009)
Read-outs that look alike come from different tables or passages of the source.

Tests used:
[1] = target: NQO2 S16D mutant (human); test: SEC; analytical gel filtration of the purified mutant (data not shown); monomer and dimer
[2] = target: T1, quinone reductase 2 (NQO2) (Homo sapiens, UniProt P16083)
T1 sequence (P16083 1-231): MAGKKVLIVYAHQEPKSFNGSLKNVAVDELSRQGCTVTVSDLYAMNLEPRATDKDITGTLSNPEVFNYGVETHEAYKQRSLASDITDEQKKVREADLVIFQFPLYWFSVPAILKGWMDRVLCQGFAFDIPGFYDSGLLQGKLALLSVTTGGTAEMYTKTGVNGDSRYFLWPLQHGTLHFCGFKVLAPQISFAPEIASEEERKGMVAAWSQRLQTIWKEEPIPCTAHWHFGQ

[3] = target: T1, quinone reductase 2 (NQO2); remark: listed apart in the source

**Q.** Which stoichiometry N [1] does the source give for NQO2 S16D mutant (enzyme) here?
**A.** 2

**Q.** With `Cc1cn(-c2cc(NC(=O)c3ccc(C)c(Nc4nccc(-c5cccnc5)n4)c3)cc(C(F)(F)F)c2)cn1` [nilotinib] as the compound, how does the IC50 [2] read?
**A.** 381 nM

**Q.** How did the IC50 [3] turn out when `O=c1c(O)c(-c2ccc(O)c(O)c2)oc2cc(O)cc(O)c12` [quercetin] was run?
**A.** 42 nM
